Results from patent publication US7759326B2, “Aminophosphonic acid derivative, salt thereof, and modulator of S1P receptor” (Kyorin Pharmaceutical Co., Ltd., priority 2003, dated 2010).
Where a name gives a salt, the structure may show the parent alone.

How the values were obtained:
[1] = molecular target: T1, hS1P1 receptors (Homo sapiens, UniProt P21453); assay: Intracellular Ca2+ mobilization in CHO cells expressing human S1P receptors (hS1P1); format: cell-based; conditions: read-out: S1P1 (EC50 class, intracellular Ca2+ mobilization)
T1 construct: expressed in transfected cells; host or cells: CHO cells (Geneticin-selected)
T1 sequence (P21453 whole entry): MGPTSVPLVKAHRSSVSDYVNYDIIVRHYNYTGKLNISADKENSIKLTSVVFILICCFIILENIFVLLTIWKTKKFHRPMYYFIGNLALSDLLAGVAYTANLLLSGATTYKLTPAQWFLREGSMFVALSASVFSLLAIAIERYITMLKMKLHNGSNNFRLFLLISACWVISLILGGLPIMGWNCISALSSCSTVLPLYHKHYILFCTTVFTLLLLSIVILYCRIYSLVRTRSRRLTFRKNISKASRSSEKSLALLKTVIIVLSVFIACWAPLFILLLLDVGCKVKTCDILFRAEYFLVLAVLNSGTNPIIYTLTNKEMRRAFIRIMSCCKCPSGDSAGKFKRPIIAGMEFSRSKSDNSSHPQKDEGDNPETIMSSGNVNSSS
Description: (§1) Test for the Ability of Test Compounds to Induce Intracellular Ca^2+ Mobilization in Cells Expressing Human S1P (Sphingosine-1-Phosphate) Receptors
(§2) CHO cells expressing human S1P receptors (i.e., CHO cells expressing hS1P1 receptors or hS1P3 receptors) were subcultured on Ham's F-12 medium supplemented with 10% fetal bovine serum and 200 μg/mL Geneticin. The cells were seeded on a 96-well black clear bottom plate (COSTAR) at 4×10^4 cells/well and were cultured overnight at 37° C. in 5% CO2. A fluorescent reagent that emits fluorescence upon binding to Ca^2+ (Calcium Screening Kit (DOJINDO)) was added to the culture and the cells were further cultured for 60 min at 37° C. in 5% CO2. After culturing, microplate spectrofluorometer (FLEX station, MOLECULAR DEVICE) was used to measure the fluorescence intensity at an excitation wavelength of 485 nm and a detection wavelength of 525 nm. S1P or a test compound adjusted with cultural medium to a concentration 10 times higher than the final concentration (final DMSO concentration=0.1%). Each test compound solution was added 18 sec. after beginning of the measurement of fluorescence. The fluorescence intensity was measured every 1.5 sec for 100 sec. For each test compound, the difference between the maximum fluorescence intensity and the minimum fluorescence intensity (i.e., increase in fluorescence) was determined from the measurements. The rate of fluorescence increase (%) for each test compound was calculated by the difference (100%) of the fluorescence increase between solvent only and S1P (10^−6M). Using this value as an index of the ability of the test compound to induce intracellular Ca^2+ mobilization, EC50 was determined by PRISM software (GraphPad).

[2] = system: host vs. graft rejection in mice; assay: Inhibitory effects on host vs. graft rejection in mice (right popliteal lymph node weight); format: in vivo, C3H/HeN mice; conditions: Mus musculus
Description: Inhibitory Effects of Test Compounds on Host Vs. Graft Rejection in Mice
This experiment was performed according to the method described in Transplantation 55(3) (1993): 578-591. Spleens were collected from 6 to 16 week old male BALB/c mice (CHARLES RIVER JAPAN). The spleens were placed in an RPMI-1640 medium (SIGMA) and were gently pressed between two slide glasses and then passed through a cell strainer (70 μm, Falcon) to form a cell suspension. The suspension was then centrifuged and the supernatant was discarded. An ammonium chloride-Tris isotonic buffer was added to the suspension to lyse erythrocytes. The cells were then centrifuged three times in RPMI-1640 medium for washing and were resuspended in an RPMI-1640 medium. To this suspension, mitomycin C (KYOWA HAKKO KOGYO Co., Ltd.) was added to a final concentration of 25 μg/mL and the suspension was incubated for 30 minutes at 37° C. in a 5% CO2 atmosphere. The cells were centrifuged three times in RPMI-1640 medium for washing and were resuspended in an RPMI-1640 medium so that the medium would contain 2.5×10^8 cells/mL. This suspension served as a “stimulation cell suspension.” Using a 27 G needle with a microsyringe (Hamilton), 20 μL (5×10^6 cells/mouse) of the stimulation cell suspension was subcutaneously injected into the right hind footpad of 6 to 8 week old male C3H/HeN mice (CLEA JAPAN). Normal control group was injected with RPMI-1640 medium alone. 4 days after the injection, right popliteal lymph nodes were collected and were weighed on a Mettler AT201 electronic scale (METTLER TOLEDO Co., Ltd.). Each animal was intraperitoneally administered a test compound once a day for four consecutive days starting on the day of the injection of the stimulation cells (i.e., total of 4 times). Control groups were administered the same vehicle as that used in the preparation of each test compound. The inhibition (%) was determined using the following formula {[Weight of right popliteal lymph nodes of positive control group]−[Weight of right popliteal lymph nodes of test compound group]×100}/{[Weight of right popliteal lymph nodes of positive control group]−[Weight of right popliteal lymph nodes of normal control group]} Formula 1

[3] = molecular target: T2, hS1P3 receptors (Homo sapiens, UniProt Q99500); assay: Intracellular Ca2+ mobilization in CHO cells expressing human S1P receptors (hS1P3); format: cell-based; conditions: read-out: S1P3 (EC50 class, intracellular Ca2+ mobilization)
T2 construct: expressed in transfected cells; host or cells: CHO cells (Geneticin-selected)
T2 sequence (Q99500 whole entry): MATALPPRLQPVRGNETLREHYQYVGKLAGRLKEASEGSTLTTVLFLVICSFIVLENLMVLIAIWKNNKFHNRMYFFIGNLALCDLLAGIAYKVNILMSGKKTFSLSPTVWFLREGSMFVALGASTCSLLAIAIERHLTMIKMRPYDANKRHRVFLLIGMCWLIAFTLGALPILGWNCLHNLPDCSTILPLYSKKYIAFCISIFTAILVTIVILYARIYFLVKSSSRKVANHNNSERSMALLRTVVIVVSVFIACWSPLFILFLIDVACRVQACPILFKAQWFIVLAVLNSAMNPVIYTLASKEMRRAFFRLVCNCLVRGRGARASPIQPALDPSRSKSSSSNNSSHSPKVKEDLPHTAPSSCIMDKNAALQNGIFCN
Description: as §1, §2

[4] = molecular target: T3, hS1P4 receptors (Homo sapiens, UniProt O95977); assay: Activation of extracellular regulatory kinase (ERK) in CHO cells expressing hS1P4 receptors; format: cell-based
T3 construct: expressed in transfected cells; host or cells: CHO cells (Geneticin-selected)
T3 sequence (O95977 1-384): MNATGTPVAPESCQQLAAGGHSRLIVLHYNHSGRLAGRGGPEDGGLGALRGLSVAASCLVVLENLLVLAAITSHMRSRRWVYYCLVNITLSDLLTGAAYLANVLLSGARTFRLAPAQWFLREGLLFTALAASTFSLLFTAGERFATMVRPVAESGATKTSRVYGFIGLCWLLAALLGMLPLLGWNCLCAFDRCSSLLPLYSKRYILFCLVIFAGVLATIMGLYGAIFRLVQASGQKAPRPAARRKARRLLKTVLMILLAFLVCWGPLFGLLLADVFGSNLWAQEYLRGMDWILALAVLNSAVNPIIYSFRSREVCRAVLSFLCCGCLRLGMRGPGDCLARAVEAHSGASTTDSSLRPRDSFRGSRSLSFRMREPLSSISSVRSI
Description: Test for the Ability of Test Compounds to Induce Activation of Extracellular Regulatory Kinase (ERK) in Cells Expressing Human S1P Receptors
CHO cells expressing human S1P receptors (i.e., CHO cells expressing hS1P4 receptors) were subcultured on Ham's F-12 medium supplemented with 10% fetal bovine serum and 200 μg/mL Geneticin. The cells were seeded on a 6-well cell culture plate (COSTAR) at 3×10^5 cells/well and were cultured overnight at 37° C. in 5% CO2. On the following day, the medium was replaced with FBS-free Ham's F-12 medium (containing 0.1% fatty acid-free bovine serum albumin) and the cells were cultured overnight at 37° C. in 5% CO2. S1P or a test compound adjusted with Ham's F-12 medium (with 0.1% fatty acid-free bovine serum albumin) to a concentration 10 times higher than the final concentration (final DMSO concentration=0.1%). Each test compound solution was added to this culture plate. The cells were cultured for 5 min at 37° C. in 5% CO2. The medium was removed and the cells were washed with a 200 μmol/L ice-cold PBS containing Na3VO4. A lysis buffer (20 mmol/L Tris-HCl pH 7.5, 1% Triton X-100, 1 mmol/L EDTA, 1 mmol/L EGTA, 0.5 mmol/L Na3VO4, 0.1% β-mercaptoethanol, 50 mmol/L NaF, 5 mmol/L Na4O7P3, 10 mmol/L C3H7O6Na, 1 μmol/L Microcystin LR, 1× Complete Protease Inhibitor Cocktail (ROCHE)) was then added to the cells and the reaction was carried out on ice for 5 min to lyse the cells. The cell lysate was subjected to sodium dodecyl sulfate-polyacrylamide gel electrophoresis (SDS-PAGE) to separate proteins. The proteins were transferred to a PVDF membrane (Hybond-P, Amersham Biosciences). The membrane was reacted overnight at 4° C. with anti-phospho ERK (p42/44 MAPK) monoclonal antibody (E10, Cell Signaling Technologies) diluted 1000-fold, and was subsequently reacted for 1 hour at room temperature with alkaline phosphatase-labeled anti-mouse IgG antibody (Molecular Probe) diluted 6000-fold. After washing with 20 mmol/L Tris-HCl and 150 mmol/L NaCl solution, the PVDF membrane was fluorostained with DDAO phosphate (DyeChrome Western Blot Stain Kit, Molecular Probe), a fluorescent substrate of alkaline phosphatase. The fluorescence was detected using a variable image analyzer (Typhoon 8600, Amersham Biosciences). The detected signal of phosphorylated ERK was quantified using ImageQuant software (Molecular Dynamics). The rate of ERK activation (%) for each test compound was calculated by the difference (100%) of the signal intensity between solvent only and S1P (10^−6 mol/L).

EC50 [1] [nM]	EC50 [3] [nM]	Structure (SMILES)	further results
< 10	< 10	CC(N)(CCCc1ccc(Sc2cccc(OCc3ccccc3)c2)cc1Cl)COP(=O)(O)O (single isomer, unassigned; (+)) [Example 239, (+)-2-amino-5-[4-(3-benzyloxyphenylthio)-2-chlorophenyl]-2-methylpentylphosphonate monoester]	inhibition in vivo at 0.03 mg/kg [2]: 65%
–	–	CCOP(=O)(C=CC(N)CCCc1ccc(Sc2cccc(OCc3ccccc3)c2)cc1Cl)OCC (stereo not drawn) [Example 233, Diethyl 3-amino-6-[4-(3-benzyloxyphenylthio)-2-chlorophenyl]-1-hexenylphosphonate hydrochloride]	inhibition in vivo at 30 mg/kg [2]: 53%
–	–	CCOP(=O)(CCC(N)CCCc1ccc(Sc2cccc(OCc3ccccc3)c2)cc1Cl)OCC (stereo not drawn) [Example 235, Diethyl 3-amino-6-[4-(3-benzyloxyphenylthio)-2-chlorophenyl]hexylphosphonate hydrochloride]	inhibition in vivo at 30 mg/kg [2]: 56%
10 to 100	10 to 100	NC(CO)(CCCc1ccc(Sc2cccc(OCc3ccccc3)c2)cc1Cl)COP(=O)(O)O (stereo not drawn) [Example 236, 2-amino-5-[4-(3-benzyloxyphenylthio)-2-chlorophenyl]-2-hydroxymethylpentylphosphonate monoester]	inhibition in vivo at 0.03 mg/kg [2]: 73%; Induction effect of ERK activation on hS1P-expressing CHO cells (Activation rate (%) relative to the activated ERK at S1P10-6 mol/L) ([4]; Compound Conc. 1 nmol/L): 8.0%; Induction effect of ERK activation on hS1P-expressing CHO cells (Activation rate (%) relative to the activated ERK at S1P10-6 mol/L) ([4]; Compound Conc. 10 nmol/L): 119.5%
< 10	< 10	NC(CO)(CCc1ccc(Sc2cccc(OCc3ccccc3)c2)cc1Cl)COP(=O)(O)O (stereo not drawn) [Example 237, 2-amino-4-[4-(3-benzyloxyphenylthio)-2-chlorophenyl]-2-hydroxymethylbutylphosphonate monoester]	inhibition in vivo at 0.1 mg/kg ([2]; Dose 0.1 mg/kg): 75%; Induction effect of ERK activation on hS1P-expressing CHO cells (Activation rate (%) relative to the activated ERK at S1P10-6 mol/L) ([4]; Compound Conc. 1 nmol/L): 35.8%; Induction effect of ERK activation on hS1P-expressing CHO cells (Activation rate (%) relative to the activated ERK at S1P10-6 mol/L) ([4]; Compound Conc. 10 nmol/L): 80.7%
100 to 1000	≥ 1000	NC(CO)(CCCc1ccc(Sc2cccc(O)c2)cc1Cl)COP(=O)(O)O (stereo not drawn) [Example 238, 2-amino-5-[2-chloro-4-(3-hydroxyphenylthio)phenyl]-2-hydroxymethylpentylphosphonate monoester]	inhibition in vivo at 3 mg/kg ([2]; Dose 3 mg/kg): 65%
100 to 1000	≥ 1000	NC(CCCc1ccc(Sc2cccc(OCc3ccccc3)c2)cc1Cl)CCP(=O)(O)O (stereo not drawn) [Example 241, 3-amino-6-[4-(3-benzyloxyphenylthio)-2-chlorophenyl]hexylphosphonic acid]	inhibition in vivo at 10 mg/kg [2]: 46%
100 to 1000	≥ 1000	NC(/C=C/P(=O)(O)O)CCCc1ccc(Sc2cccc(OCc3ccccc3)c2)cc1Cl (stereo not drawn) [Example 242, 3-amino-6-[4-(3-benzyloxyphenylthio)-2-chlorophenyl]-1-hexenylphosphonic acid]	inhibition in vivo at 10 mg/kg [2]: 62%
